Measured values from patent US7683055B2, “Lanthionine-related compounds for the treatment of inflammatory diseases” (Oklahoma Medical Research Foundation, priority 2006, dated 2010).

Legend:
[1] = system: EOC-20 microglia; assay: TNFα-stimulated nitrite production in EOC-20 microglia (Griess assay); type: cell-based, mouse; conditions: for net suppression of nitrite: TNFα-stimulated, nitrite measured 24 h later
Description: Mouse EOC-20 microglia (American Tissue Type Collection, Gaithersville Md. USA) (Hensley et al., 2003; Walker et al., 1995) were grown in DMEM containing 20% L929 fibroblast-supplemented medium. Nitrite production by cytokine stimulated microglia was measured in cell culture medium using the Griess diazotization reaction as previously reported (Hensley et al., 2003; West et al., 2004).
The efficacy of (R)-LKE1 and (R)-LK as inhibitors of microglial cell activation in response to pro-inflammatory cytokines is shown in FIGS. 1A & 1B. EOC-20 murine microglial cells were pretreated 30 minutes with test compounds (e.g. (R)-LK or (R)-LKE1) dissolved in DMSO and diluted 1:200 into cell culture medium; or with DMSO vehicle only. Cells were then challenged with cytokine and allowed to incubate undisturbed in the cell culture incubator for 24 h prior to Griess assay. The lanthionine ketimine ester in this case is the structure shown above as (R)-LKE1. After drug treatment cells were then stimulated with 40 ng/mL recombinant murine tumor necrosis factor alpha (TNF α) plus 50U/mL interferon gamma (IFNγ). Nitrite (NO2^−) was measured in the cell culture medium 24 hours later, as an index of nitric oxide production. Cell viability was then assayed in the same cultures using a commercially available tetrazolium reduction assay (Promega OneStep™; Promega, Gaithersburg Md.). Cell culture methods were those published by the inventor (Hensley et al., 2003; West et al., 2004).
In a EOC-20 microglial assay the cells were stimulated with TNFα in the presence or absence of 100 microM (R)- or (S)-LK, and nitrite was measured 24 h later, the net suppression of nitrite was 13% by (S)-LK and 15% by (R)-LK.
The reduced lanthionine ketimine (i.e., TMDCA) was also tested against TNFα-stimulated nitrite production in the EOC-20 screen.

[2] = system: NSC-34 cells; assay: NSC-34 viability after H2O2 challenge (tetrazolium reduction); type: cell-based, mouse; conditions: for protection against H2O2: 0.5 mM, 6 h pretreatment, 1 mM H2O2, viability 24 h later
Description: NSC-34 cells were challenged directly with H2O2 for 24 h and the viability was assessed by tetrazolium reduction assay.
Furthermore, the invention contemplates that cytoprotection might be achieved by providing metabolic precursors to LK, rather than direct addition of the compound. For example, the inventor has studied the effects of NSC-34 cells treated with ethyl pyruvate in the presence or absence of lanthionine for 6 h prior to challenge with H2O2 and has assayed the viability of these cells 24 h later (FIG. 10). As reported in previous studies, ethyl pyruvate alone was protective against peroxide-induced cell death (Desagher et al., 1997; Nakamichi et al., 2005) with complete protection at ethyl pyruvate concentrations >1 mM (approximately 2-fold higher than ambient cell culture medium pyruvate concentrations; data not shown).
(R)-LKE1 protects NSC-34 motoneuron x neuroblastoma hybrid cells from hydrogen peroxide toxicity (FIG. 4). Cells were treated with the indicated concentration of (R)-LKE1. Thirty minutes later cells were challenged with the indicated concentration of hydrogen peroxide. Cell viability was assayed 24 hours later by tetrazolium reduction using a commercially available kit (Promega).
NSC-34 motor neuron-like cells, derived through the fusion of a neuroblastoma cell line with embryonic mouse motor neurons (Cashman et al., 1992), were grown in Dulbeco's modified essential medium (DMEM) plus 5% fetal bovine serum (FBS) and 1% penicillin plus 1% streptomycin (Pen/Strep). Recombinant TNFα and interferon gamma (IFNγ) were purchased from BD Biosciences (Pasadena Calif. USA). Lanthionine was purchased from Sequoia Research Products Ltd. (Pangbourne, UK). All other reagents were of the highest available commercial purity.
NSC-34 cells were exposed to 1 mM H2O2 with or without ethyl-pyruvate and/or lantionine (LK).

[3] = system: HT4 cells; assay: glutamate toxicity in HT4 cells (LDH leakage); type: cell-based
Description: (§1) FIG. 13. (R)-LK protects HT4 cells against excitotoxicity. Determination of cell viability: HT4 cells were seeded in 6 well plates (1×10^7 cell/well). After 24 h, cell media was changed and (R)-LK (in DMSO) was used for 1 h prior to glutamate challenge. Powdered (R)-LK was dissolved in DMSO just before use. The viability of cells in culture was assessed by measuring the leakage of lactate dehydrogenase (LDH) from cells to media 18-24 h following glutamate treatment using the in vitro toxicology assay kit from Sigma Chemical Co. (St. Louis, Mo., USA). LDH leakage was determined using the following equation: % of total LDH leaked=(LDH activity in the cell culture media/total LDH activity) where total LDH activity=LDH activity in cell monolayer+LDH activity of detached cells+LDH activity in the cell culture media.
as §1, with “14. (R)-LKE1” for “13. (R)-LK”, “Determination of cell viability: HT4 cells were seeded in 6 well plates (1×10^7 cell/well). After 24 h, cell media was changed and (R)-LK (in DMSO) was used for 1 h prior to glutamate challenge. Powdered (R)-LK was dissolved in DMSO just before use.” left out, “media. […]” for “media.”

[4] = target: synaptosomal membranes; conditions: read-out: affinity of binding to synaptosomal membranes; cited from earlier work

## O=C(O)C1=CSC[C@H](C(=O)O)N1 [(S)-LK]
[1]; 100 microM
  net suppression of nitrite: 13%

## CCOC(=O)C(C)=O [ethyl pyruvate]
[2]
  protection against H2O2: significant but partial protection
[2]; data not shown
  concentration giving complete protection against peroxide-induced cell death: > 1 mM

## O=C(O)C1CSCC(C(=O)O)N1 (centres unmarked) [TMDCA, thiomorpholine dicarboxylic acid]
[1]; 100 microM, TNFα-stimulated nitrite production
  inhibition of the cytokine effect: about 32.5%
[1]; 100 microM, TNFα-stimulated nitrite production, +/- SD
  microglial activation, % of the maximum: 67.5+/−3.8%

## lanthionine ketimine [LK]
[1]; TNFα-stimulated EOC-20 microglia
  inhibition of nitrite production: inhibited nitrite production
[3]
  glutamate toxicity (LDH release): significantly diminished glutamate toxicity
[4]
  Kd: 50 nM

## O=C(O)C1=N[C@H](C(=O)O)CSC1 [(R)-LK]
[1]; 100 microM
  net suppression of nitrite: 15%
[2]; H2O2 challenge 24 h
  protection from H2O2-induced cell death: protects NSC-34 motor-neuron like cells from hydrogen peroxide toxicity

## N[C@@H](CSC[C@H](N)C(=O)O)C(=O)O [lanthionine]
[2]
  protection against H2O2: no protective effect
